# From patent US7470660B2, “Treatment for dark adaptation” (The Regents of the University of California, priority 2001, dated 2008)
# “Also recorded” adds a separate entry of the source.
# Experiments:
# [1] = test system: apo E secretion from RPE cells; experiment: Apo E secretion into basal media of RPE cells, western blot; format: cell-based, human; details: 36 hour incubation, both chambers, T3 10^-7 M, 22 (R) hydroxycholesterol 2.5x10^-6 M, cis retinoic acid 10^-7 M (10^-6 M elsewhere in the source), FIG. 6
# Description: Primary cultures of normal human RPE cells from passages 5 to 10 were used for the experiments described. RPE cells were grown to confluence on laminin-coated 6 well Transwell tissue culture plates (Costar) with DMEM-H21 containing 10% fetal bovine serum, 2 mM glutamine, 50 μg/ml gentamicin and 2.5 mg/ml fungizone in the top and bottom chambers. […] Cells were grown for at least 1 week at confluence prior to drug treatment. Cells to be treated with drugs were incubated in serum free DMEM-H21 prior to drug addition. Drug treatments were in serum free DMEM-H21 with or without 10^−7 M thyroid hormone (T3), 2.5×10^−6 M 22 (R) hydroxycholesterol, or 10^−7 M cis retinoic acid in both chambers for 36 hours.
# Total protein content was determined by a modified Lowry assay (Bio-Rad DC kit, Richmond, Calif.). Concentrated media (50 μg protein) was made to Start Buffer (0.025 M NaCl, 0.010 M tris (pH 8.5), 5 mM MnCl2) and adsorbed onto a 0.1 ml column containing Heparin-Sepharose CL-4B (Pharmacia, Uppsala, Sweden). Following a 2 ml wash in Start Buffer, the apo E containing bound fraction was eluted with 0.5M NaCl in Start buffer. The eluate was concentrated to 20 μl and buffer-exchanged to SalEN by centrifugal ultrafiltration (Biomax, 5k MCO, Millipore, Bedford, Mass.). Apo E was resolved by tris-tricine buffered SDS-PAGE (5-25% linear acrylamide gradient) and proteins electrophoetically transferred (55V, 18 h) to nitrocelluose membrane filters (Schleicher and Shuell, Keen, N.H.). Membranes were blocked with 10% bovine serum albumin at room temperature and probed with 1% goat anti-human apo E antiserum (18 h, 3° C.) prepared in 0.15% NaCl, 1 mM EDTA (pH 7.4), 0.1% Triton X-100 (SalET). The primary-bound anti-apo E antibodies were detected colorimetrically with horseradish peroxidase conjugated rabbit anti-goat Ig (H+L) and NiCl2-enhanced diaminobenzine staining. Stained bands were compared densitometrically from the digitized scanned image (NIH Image, v.1.62).
# In order to distinguish apical (A) from basally (B) secreted apo E, RPE cells were cultured on laminin-coated Transwell plates. […] Total protein and apo E-specific protein concentrations were measured from media pooled and concentrated from 3-6 replicate wells. To assess apo E-specific secretion, apo E was purified from conditioned media by heparin-sepharose affinity chromatography and visualized by western blotting.
# Since RPE cells express lxr α as well as thyroid hormone receptors (TRs) and retinoid-X-receptors (RXRs), the effect of 10^−7 M T3, 2.5×10^−6 M 22 (R) hydroxycholesterol (HC) (an lxr α agonist), or 10^−7 M cis retinoic acid (cRA) (an RXR agonist) on apo E secretion from RPE cells was tested. FIG. 6 illustrates the same experimental procedure as described above, but with basal and apical media both containing the following compounds for a 36 hour incubation: T3 (10^−7) M (T); 9 cis-RA (10^−6) M (RA); and 22 (R) hydroxycholesterol 2.5 (10^−6) M (HC).
# Control (C) refers to no drug addition; T refers to 10^−7 M T3; RA refers to 10^−7 M cis retinoic acid; and HC refers to 2.5×10^−6 M 22(R) hydroxycholesterol. Basal media from 3 wells were combined, concentrated, and apo E was detected by western blotting.
# [2] = test system: cultured human RPE cells; experiment: 14C-DHA labeled POS efflux into basal media after drug treatment; format: cell-based; details: 36 hours; 10^-7 M T3, 2.5x10^-5 M 22 (R) hydroxycholesterol or 10^-7 M cis retinoic acid; basal medium 1 mg/ml HDL; FIG. 10
# Description: Bovine outer photoreceptor outer segments (POS) were labeled by incubating […] Coenzyme A, ATP, Mg^2+, and [^14C]-DHA. Cells grown on laminin coated Transwell plates were incubated with 12 μg/ml labeled POS in the apical chamber for 36 hours in medium containing 10% lipoprotein deficient fetal bovine serum. The basal medium was subjected to scintillation counting to determine the amount of [^14C] labeled lipids transported through the RPE cells.
# This experiment determines whether compound administration can upregulate efflux of labeled POS residues to HDL, particularly by showing regulation of ^14C-DHA labeled POS efflux into basal media. An assay similar to that described in Example 4 is utilized; however, in this Example the cells were treated with T3, 9 cis-retinoic acid, and 22 (R) hydroxycholesterol in the concentrations described above for 36 hours. Total radioactivity (cpm) in the absence of HDL purification was determined by liquid scintillation counting of the basal media.
# Specifically, cells were grown for 1 to 2 weeks at confluence on Transwell plates. ^14C-labeled POS […] were added to the apical medium. The apical and basal medium comprised either 10^−7 M T3, 2.5×10^−5 M 22 (R) hydroxycholesterol, or 10^−7 M cis retinoic acid. The basal medium contained 1 mg/ml HDL. After 36 hours the basal medium was collected and ^14C counts were determined by scintillation counting.
# [3] = test system: apo E secretion from RPE cells; experiment: Apo E secretion from RPE cells, ELISA; format: cell-based, human; details: 36 hours, serum free DMEM; 10^-7 M T3; 2.5x10^-6 M 22(R) hydroxycholesterol; 10^-7 M cis retinoic acid; alone and in combination; FIG. 14
# Description: RPE cells were treated for 36 hours on Transwell® plates with serum free DMEM +/− the drugs indicated. Control refers to no drug addition, T refers to 10^−7 M T3; HC refers to 2.5×10^−6 M 22(R) hydroxycholesterol; RA refers to 10^−7 M cis retinoic acid. N=6, * indicates p<0.05 (two-tailed t-test) compared to Control.
# Media samples treated with 0.1% Tween-20 containing 1% bovine serum albumin were incubated (37° C., 4 h) in 96-well plates previously coated with apo E-affinity purified goat anti-apo E antibody. Apo E was detected using a secondary antibody-peroxidase conjugate and 3.3.5.5′-[…] (TMB) substrate. Optical density was measured at 450 nm. The assay was calibrated with purified plasma apo E. The dynamic range of the assay was 1-40 ng/ml apo E with a CV<5%.
# [4] = test system: Human retinal pigment epithelial cells; experiment: 14C-labeled lipid efflux from RPE cells with HDL, apoA-I or apoA-I vesicles; format: cell-based; details: basal chamber, 36 hours, vs Control; FIG. 19
# Description: The present inventors have created liposomes comprising apoA-I (artificial preβ1 HDL). Artificial discoidal apoA-I liposomes comprising purified human plasma apoAI, the saturated phospholipid dimyristoyl-L-α-phoshatidylcholine (DMPC) and cholesterol were constructed by the sodium cholate dialysis method. Liposomes were prepared using a molar ratio of approximately 1/5/95, apoA-I/free cholesterol/DMPC. Human retinal pigment epithelial cells grown on 6 well laminin coated Transwell® plates were fed ^14C-docosahexaenoic acid labeled photoreceptor outer segments in medium containing 5% lipoprotein free fetal bovine serum for 36 hours (apical chamber). Basal chambers contained serum free medium and either no human high density lipoprotein (HDL) (Control), 100 μg/ml of human HDL, pure human apoA-I, or human apoA-I vesicles. An aliquot of the basal medium was subjected to liquid scintillation counting. Wells were treated in triplicate. HDL stimulated ^14C-labeled lipid efflux by about 60%.
Compound,basal Apo E expression/secretion (Western blot of basal media) [1],basal Apo E expression/secretion (Western blot of basal media) ([1]; listed as HC),transport of 14C-labeled POS to the basal medium [2],apo E secretion (ELISA) [3],basal Apo E expression/secretion (Western blot of basal media) ([1]; listed as 9 cis-RA),basal Apo E expression/secretion (Western blot of basal media) ([1]; listed as RA),stimulation of 14C-labeled lipid efflux (in words) [4]
CC(C)CC[C@@H](O)[C@@H](C)[C@H]1CC[C@H]2[C@@H]3CC=C4C[C@@H](O)CC[C@]4(C)[C@H]3CC[C@]12C [22 (R) hydroxycholesterol],increased basal expression of Apo E,stimulate basal apo E secretion,increased transport of ^14C-labeled POS to the basal medium,upregulate apo E secretion,–,–,–
"N[C@@H](Cc1cc(I)c(Oc2ccc(O)c(I)c2)c(I)c1)C(=O)O [T3, 3,5,3′-L-triiodothyronine]",increased basal expression of Apo E; also recorded: stimulate basal apo E secretion,–,increased transport of ^14C-labeled POS to the basal medium,upregulate apo E secretion,–,–,–
"CC1=C(/C=C/C(C)=C\C=C\C(C)=C\C(=O)O)C(C)(C)CCC1 [cis retinoic acid, 9 cis-retinoic acid]",–,–,increased transport of ^14C-labeled POS to the basal medium,upregulate apo E secretion,increased basal expression of Apo E,stimulate basal apo E secretion,–
"ApoA-I: pure human apoA-I, purified from human plasma; major lipoprotein component of HDL",–,–,–,–,–,–,appeared to stimulate
